From ChEMBL document CHEMBL5465560, “Selectivity Literature for EUbOPEN Chemogenomic Library” (2024)
pIC50: −log10 of the molar value.

What was measured:
[1] = target: Receptor tyrosine-protein kinase erbB-3 (Homo sapiens) (UniProt P21860); test: Selectivity interaction (KinomeScan (DiscoverX)) EUB0001049a ERBB3; settings: at 1 µM
[2] = target: Protein kinase C theta type (Homo sapiens, UniProt Q04759); test: Selectivity interaction (KinomeScan (DiscoverX)) EUB0000666a PRKCQ; settings: at 10 µM
[3] = target: Cyclin-dependent kinase 9 (Homo sapiens, UniProt P50750); test: Selectivity interaction (Z-Lyte kinase biochemical assay, conc. ATP = Km(app), Thermo Fisher Scientific) EUB0001558a CDK9
[4] = target: Ribosomal protein S6 kinase alpha-3 (Homo sapiens, UniProt P51812); test: Selectivity interaction (ActivX KiNativ screen (kinase selectivity in THP-1 cell lysates)) EUB0000639a RPS6KA3; format: subcellular; settings: lysate, at 0.01 µM
[5] = target: DNA-dependent protein kinase catalytic subunit (Homo sapiens) (UniProt P78527); test: Selectivity interaction (ActivX KiNativ screen (kinase selectivity in THP-1 cell lysates)) EUB0000639a PRKDC; format: subcellular; settings: lysate, at 1 µM
[6] = target: T1, Mitogen-activated protein kinase kinase kinase 7 (Homo sapiens) (UniProt O43318); test: Selectivity interaction (Kinase panel (Invitrogen)) EUB0000639a MAP3K7; settings: at 200 nM
T1 sequence (whole entry): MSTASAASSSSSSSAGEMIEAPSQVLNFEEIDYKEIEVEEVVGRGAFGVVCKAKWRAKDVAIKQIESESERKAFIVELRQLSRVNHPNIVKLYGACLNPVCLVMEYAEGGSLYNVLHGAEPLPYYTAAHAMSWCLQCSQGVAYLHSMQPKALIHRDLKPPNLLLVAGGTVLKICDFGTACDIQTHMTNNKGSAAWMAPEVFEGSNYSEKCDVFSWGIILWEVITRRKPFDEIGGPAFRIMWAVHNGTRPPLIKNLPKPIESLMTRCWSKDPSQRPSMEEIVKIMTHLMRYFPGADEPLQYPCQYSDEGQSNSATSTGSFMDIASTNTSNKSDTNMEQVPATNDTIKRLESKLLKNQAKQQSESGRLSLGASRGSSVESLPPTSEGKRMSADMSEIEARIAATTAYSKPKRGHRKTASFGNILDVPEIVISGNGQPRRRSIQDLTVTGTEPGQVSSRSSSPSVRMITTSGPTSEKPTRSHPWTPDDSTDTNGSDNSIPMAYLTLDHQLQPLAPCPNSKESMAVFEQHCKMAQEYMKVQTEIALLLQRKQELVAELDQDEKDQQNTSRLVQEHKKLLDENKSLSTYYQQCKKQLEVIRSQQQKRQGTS

[7] = target: Mitogen-activated protein kinase 10 (Homo sapiens, UniProt P53779); test: Selectivity interaction (KinomeScan (DiscoverX)) EUB0001619a MAPK10; settings: at 1 µM
[8] = target: DNA-dependent protein kinase catalytic subunit (Homo sapiens) (UniProt P78527); test: Selectivity interaction (ActivX KiNativ screen (ex vivo kinase selectivity in human PBMCs)) EUB0001619a PRKDC; format: cell-based; settings: PBMC, at 1 µM
[9] = target: T2, Serine/threonine-protein kinase D2 (Homo sapiens) (UniProt Q9BZL6); test: Selectivity interaction (KinomeScan (DiscoverX)) EUB0000655a PRKD2; settings: at 10 µM
T2 sequence (whole entry): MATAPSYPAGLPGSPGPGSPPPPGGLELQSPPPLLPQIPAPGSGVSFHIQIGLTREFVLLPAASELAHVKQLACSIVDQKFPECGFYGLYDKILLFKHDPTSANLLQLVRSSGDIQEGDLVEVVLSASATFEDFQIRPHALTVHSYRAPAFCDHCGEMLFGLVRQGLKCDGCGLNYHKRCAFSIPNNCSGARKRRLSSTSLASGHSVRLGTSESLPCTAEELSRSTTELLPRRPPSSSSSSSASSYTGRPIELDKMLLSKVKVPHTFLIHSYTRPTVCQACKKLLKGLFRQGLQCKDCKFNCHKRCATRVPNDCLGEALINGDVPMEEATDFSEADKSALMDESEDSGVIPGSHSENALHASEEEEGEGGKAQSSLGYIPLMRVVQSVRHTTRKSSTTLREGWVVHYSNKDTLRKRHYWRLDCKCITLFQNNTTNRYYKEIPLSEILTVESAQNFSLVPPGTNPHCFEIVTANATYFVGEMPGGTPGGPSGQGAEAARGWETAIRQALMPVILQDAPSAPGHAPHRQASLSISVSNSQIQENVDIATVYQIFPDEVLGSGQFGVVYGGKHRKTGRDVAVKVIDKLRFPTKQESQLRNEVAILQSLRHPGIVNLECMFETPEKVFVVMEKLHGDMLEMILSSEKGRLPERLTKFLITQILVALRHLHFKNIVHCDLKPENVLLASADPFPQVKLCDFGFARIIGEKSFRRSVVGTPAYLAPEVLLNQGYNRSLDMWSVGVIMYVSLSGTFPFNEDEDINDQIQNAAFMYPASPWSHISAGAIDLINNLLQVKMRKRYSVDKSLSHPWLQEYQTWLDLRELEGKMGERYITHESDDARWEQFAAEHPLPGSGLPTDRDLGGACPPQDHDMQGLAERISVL

[10] = target: Mitogen-activated protein kinase 9 (Homo sapiens, UniProt P45984); test: Selectivity interaction (KinomeScan (DiscoverX)) EUB0000695a MAPK9; settings: at 100 nM
[11] = target: Serine/threonine-protein kinase B-raf (Homo sapiens) (UniProt P15056); test: (§1) Selectivity interaction (KinomeScan (DiscoverX)) EUB0000607a BRAF; settings: at 10 µM
[12] = tested on: Serine/threonine-protein kinase B-raf (Homo sapiens), P15056 [V600E]; test: as §1; settings: at 10 µM
[13] = target: 5-hydroxytryptamine receptor 2B (Homo sapiens, UniProt P41595); test: Selectivity interaction (Panel of non-epigenetic targets (kinases, GPCRs, ion channels, and transporters, Eurofins) ) EUB0000271b HTR2B; settings: at 1 µM

Chain of DNA-dependent protein kinase catalytic subunit (Homo sapiens) (P78527 whole entry): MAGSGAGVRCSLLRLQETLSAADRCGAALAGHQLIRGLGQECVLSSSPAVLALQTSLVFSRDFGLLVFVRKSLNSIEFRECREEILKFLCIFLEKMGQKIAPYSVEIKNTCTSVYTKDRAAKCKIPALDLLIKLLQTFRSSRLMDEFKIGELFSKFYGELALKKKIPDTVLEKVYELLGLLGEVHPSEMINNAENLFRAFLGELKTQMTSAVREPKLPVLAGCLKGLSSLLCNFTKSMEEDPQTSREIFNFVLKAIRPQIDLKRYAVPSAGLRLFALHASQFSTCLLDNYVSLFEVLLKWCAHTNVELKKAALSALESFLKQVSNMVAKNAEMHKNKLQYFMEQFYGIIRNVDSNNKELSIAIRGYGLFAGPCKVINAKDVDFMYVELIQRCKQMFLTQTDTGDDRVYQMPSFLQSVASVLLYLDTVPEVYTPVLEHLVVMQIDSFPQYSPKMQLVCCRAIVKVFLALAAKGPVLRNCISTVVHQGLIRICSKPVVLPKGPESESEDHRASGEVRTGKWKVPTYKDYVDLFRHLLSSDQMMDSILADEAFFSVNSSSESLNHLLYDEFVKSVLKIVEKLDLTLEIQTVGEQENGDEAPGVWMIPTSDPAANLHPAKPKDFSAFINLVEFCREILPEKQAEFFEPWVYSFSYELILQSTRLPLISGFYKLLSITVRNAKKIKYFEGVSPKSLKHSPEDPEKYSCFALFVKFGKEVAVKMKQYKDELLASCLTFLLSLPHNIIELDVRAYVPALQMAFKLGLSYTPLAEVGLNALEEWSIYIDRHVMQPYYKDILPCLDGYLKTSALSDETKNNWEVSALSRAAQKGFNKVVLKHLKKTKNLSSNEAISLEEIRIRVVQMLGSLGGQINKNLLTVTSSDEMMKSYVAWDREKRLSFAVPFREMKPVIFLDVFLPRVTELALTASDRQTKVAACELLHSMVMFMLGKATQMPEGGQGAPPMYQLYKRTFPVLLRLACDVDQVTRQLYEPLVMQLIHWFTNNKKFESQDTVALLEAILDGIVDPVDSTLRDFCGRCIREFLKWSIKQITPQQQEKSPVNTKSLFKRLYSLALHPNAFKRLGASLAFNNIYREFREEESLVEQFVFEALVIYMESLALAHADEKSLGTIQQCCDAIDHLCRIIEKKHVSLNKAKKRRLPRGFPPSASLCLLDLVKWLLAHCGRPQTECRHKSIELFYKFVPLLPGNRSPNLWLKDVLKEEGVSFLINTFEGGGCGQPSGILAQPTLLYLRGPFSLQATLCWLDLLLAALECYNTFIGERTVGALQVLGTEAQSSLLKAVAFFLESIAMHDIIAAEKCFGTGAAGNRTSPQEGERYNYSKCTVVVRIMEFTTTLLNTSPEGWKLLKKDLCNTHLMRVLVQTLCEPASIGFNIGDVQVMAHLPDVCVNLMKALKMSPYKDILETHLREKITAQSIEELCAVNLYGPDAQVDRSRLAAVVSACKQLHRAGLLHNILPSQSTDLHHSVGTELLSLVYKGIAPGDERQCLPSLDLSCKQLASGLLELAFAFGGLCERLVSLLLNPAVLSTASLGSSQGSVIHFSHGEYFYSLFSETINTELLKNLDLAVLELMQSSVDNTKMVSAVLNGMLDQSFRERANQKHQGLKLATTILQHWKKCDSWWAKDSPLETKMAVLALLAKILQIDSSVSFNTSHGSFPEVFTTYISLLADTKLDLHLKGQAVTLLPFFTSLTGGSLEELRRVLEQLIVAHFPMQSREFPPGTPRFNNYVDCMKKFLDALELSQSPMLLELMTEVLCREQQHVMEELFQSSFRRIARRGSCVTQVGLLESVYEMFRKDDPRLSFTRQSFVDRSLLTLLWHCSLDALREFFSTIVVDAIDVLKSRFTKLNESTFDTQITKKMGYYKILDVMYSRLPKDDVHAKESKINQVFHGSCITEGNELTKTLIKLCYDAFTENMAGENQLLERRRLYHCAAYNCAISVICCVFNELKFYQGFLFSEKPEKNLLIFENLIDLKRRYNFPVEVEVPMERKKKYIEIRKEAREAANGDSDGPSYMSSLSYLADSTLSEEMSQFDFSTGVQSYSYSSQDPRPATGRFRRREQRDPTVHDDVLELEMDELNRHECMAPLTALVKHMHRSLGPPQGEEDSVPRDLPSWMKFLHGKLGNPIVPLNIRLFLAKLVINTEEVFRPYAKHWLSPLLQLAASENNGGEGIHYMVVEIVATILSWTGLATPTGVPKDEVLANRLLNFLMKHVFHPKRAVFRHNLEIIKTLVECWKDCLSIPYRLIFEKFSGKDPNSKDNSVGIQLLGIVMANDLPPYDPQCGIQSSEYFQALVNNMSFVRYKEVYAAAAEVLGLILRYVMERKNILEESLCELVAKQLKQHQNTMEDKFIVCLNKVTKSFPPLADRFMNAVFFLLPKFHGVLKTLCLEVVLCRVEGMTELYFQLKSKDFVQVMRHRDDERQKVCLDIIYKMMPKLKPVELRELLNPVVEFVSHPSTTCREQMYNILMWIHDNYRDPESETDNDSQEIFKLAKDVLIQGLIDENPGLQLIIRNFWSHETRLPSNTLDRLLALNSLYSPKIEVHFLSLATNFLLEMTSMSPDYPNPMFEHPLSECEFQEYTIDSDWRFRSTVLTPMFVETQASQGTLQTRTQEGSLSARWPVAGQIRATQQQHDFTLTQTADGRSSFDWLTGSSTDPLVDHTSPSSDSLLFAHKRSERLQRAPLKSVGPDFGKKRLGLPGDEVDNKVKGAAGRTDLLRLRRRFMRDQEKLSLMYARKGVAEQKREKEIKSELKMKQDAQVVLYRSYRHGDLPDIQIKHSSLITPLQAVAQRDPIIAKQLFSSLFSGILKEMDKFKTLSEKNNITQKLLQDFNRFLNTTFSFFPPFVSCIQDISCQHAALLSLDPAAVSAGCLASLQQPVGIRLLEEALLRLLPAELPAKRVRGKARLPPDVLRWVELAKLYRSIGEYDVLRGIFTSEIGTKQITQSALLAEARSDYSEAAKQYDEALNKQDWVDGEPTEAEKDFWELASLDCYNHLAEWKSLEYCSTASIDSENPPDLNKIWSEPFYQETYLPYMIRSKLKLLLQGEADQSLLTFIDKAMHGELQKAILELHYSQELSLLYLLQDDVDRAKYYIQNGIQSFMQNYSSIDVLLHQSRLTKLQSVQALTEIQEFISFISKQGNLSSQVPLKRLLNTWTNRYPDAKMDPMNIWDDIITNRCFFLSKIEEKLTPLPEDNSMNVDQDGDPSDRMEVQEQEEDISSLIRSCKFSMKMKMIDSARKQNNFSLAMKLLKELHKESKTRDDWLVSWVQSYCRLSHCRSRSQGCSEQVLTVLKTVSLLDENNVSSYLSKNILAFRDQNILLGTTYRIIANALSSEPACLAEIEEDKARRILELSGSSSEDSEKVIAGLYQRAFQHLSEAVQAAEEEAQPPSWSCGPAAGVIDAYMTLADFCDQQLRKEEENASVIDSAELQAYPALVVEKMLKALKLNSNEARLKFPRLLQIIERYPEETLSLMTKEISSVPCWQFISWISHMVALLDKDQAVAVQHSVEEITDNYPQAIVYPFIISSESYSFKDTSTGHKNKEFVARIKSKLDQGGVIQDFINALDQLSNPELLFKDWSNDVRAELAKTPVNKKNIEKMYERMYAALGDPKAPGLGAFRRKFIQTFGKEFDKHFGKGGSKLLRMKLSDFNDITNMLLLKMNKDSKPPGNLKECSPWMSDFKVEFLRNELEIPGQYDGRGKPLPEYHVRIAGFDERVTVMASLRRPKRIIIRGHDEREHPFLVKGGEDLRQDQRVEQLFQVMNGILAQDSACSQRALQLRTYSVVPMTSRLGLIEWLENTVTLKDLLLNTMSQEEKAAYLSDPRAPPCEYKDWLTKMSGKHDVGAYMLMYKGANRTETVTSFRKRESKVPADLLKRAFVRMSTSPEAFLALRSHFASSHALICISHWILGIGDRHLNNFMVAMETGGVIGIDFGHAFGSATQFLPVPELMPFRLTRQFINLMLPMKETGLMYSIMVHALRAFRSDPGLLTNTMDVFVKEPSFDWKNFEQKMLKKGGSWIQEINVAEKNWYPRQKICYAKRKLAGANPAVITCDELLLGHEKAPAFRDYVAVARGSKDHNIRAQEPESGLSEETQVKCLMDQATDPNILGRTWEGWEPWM
Chain of Mitogen-activated protein kinase 9 (P45984 whole entry, looked up): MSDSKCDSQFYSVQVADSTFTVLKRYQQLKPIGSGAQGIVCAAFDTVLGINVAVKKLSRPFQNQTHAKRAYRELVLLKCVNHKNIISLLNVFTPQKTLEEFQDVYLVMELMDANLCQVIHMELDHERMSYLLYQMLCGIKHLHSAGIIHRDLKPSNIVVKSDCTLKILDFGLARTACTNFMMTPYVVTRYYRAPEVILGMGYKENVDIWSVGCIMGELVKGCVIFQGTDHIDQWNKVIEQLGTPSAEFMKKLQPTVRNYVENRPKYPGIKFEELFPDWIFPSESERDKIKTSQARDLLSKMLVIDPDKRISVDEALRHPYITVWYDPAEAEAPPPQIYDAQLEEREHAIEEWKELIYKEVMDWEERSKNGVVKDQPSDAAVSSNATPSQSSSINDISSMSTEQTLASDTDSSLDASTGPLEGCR
Chain of Mitogen-activated protein kinase 10 (P53779 whole entry): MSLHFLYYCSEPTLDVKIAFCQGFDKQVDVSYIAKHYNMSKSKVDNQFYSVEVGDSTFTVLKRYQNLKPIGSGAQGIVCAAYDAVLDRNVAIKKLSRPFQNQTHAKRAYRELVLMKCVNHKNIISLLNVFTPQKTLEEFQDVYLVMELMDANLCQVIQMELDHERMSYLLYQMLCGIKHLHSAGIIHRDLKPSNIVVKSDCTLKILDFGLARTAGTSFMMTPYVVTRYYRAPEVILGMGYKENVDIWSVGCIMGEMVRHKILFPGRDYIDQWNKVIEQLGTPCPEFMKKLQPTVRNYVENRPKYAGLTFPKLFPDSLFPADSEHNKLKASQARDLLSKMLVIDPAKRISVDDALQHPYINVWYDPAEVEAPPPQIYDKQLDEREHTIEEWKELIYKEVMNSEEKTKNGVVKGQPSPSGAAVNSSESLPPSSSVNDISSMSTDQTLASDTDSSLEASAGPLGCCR

`COc1cc(Nc2nc(C)cc(-c3cnn4nc(OC)ccc34)n2)cc(C(F)(F)F)c1` was tested, and the % of control [1] was 100%.
`O=C(NOC[C@H](O)CO)c1ccc(F)c(F)c1Nc1ccc(I)cc1F` was tested, and the % of control [2] was 100%.
`CC(C)(O)[C@H](F)CN1Cc2cc(NC(=O)c3cnn4cccnc34)c(N3CCOCC3)cc2C1=O` gave a pIC50 [3] of 6.02.
Work on `CC[C@@H]1[C@H](F)C(=O)N[C@@H]1COc1nccc2cc(C(N)=O)c(OC)cc12` [ZIMLOVISERTIB] yielded a % of inhibition [4] of 10.7%, a % of inhibition [5] of 7.2% and a % of inhibition [6] of 8.31%.
`N#Cc1cccc(-c2c[nH]c3ncnc(N4CCOCC4)c23)c1` gave a % of control [7] of 100% and a % of inhibition [8] of 15%.
`CN(C)CCOc1ccc(-c2nc(-c3ccncc3)c(-c3ccc4c(c3)CC/C4=N\O)[nH]2)cc1` gave a % of control [9] of 80%.
With `Cc1cc(F)c(C(=O)Nc2cccc(-c3nncn3C(C)C)n2)cc1-n1cnc(C2CC2)c1` the % of control [10] was 78%.
`CNC(=O)Nc1ccc(-c2nc(N3CC4CCC(C3)O4)c3cnn(C4CCC5(CC4)OCCO5)c3n2)cc1` showed a % of control [11] of 100% and a % of control [12] of 100%.
For `Cc1cc(C)cc([C@@H]2c3cc(C)ccc3NC(=O)CN2C(=O)c2ccc(Br)s2)c1`, the % of inhibition [13] was 1%.
